# Test results taken from patent US20240108739A1, “OLIGOMERIC COMPOUNDS BINDING SPECIFICALLY TO PROTEOGLYCANS” (PHI PHARMA SA, priority 2020, published 2024).
# Starred links: 1 amine or outer side, 2 acyl side, 3 side chain; linkers in the order of their positions; H or OH if unused. Positions of bridges follow the written chain, without caps; N, C: chain ends. Non-standard residues stand in square brackets, D forms with d. Residues, ends and D or L forms follow the SMILES beside them. Chains are numbered I, II in the order given. No end group written: not given here. ξ: configuration not given here. *: point of attachment. X1 = CC1(C)C(/C=C/C(=C/C=C2\N(CCCS(=O)(=O)O)c3ccc(S(=O)(=O)O)cc3C2(C)C)c2cccc(CCC(=O)NCCN3C(=O)CC(*)C3=O)c2)=Nc2c1cc(Cl)c[n+]2CCCS(=O)(=O)[O-]; X3 = N=c1ccc2c(-c3ccc(C(=O)NCCCCCN4C(=O)CC(*)C4=O)cc3C(=O)O)c3ccc(N)c(S(=O)(=O)O)c3oc-2c1S(=O)(=O)O; X2 = O=C(CCCCCN1C(=O)CC(*)C1=O)NNC(=O)CCCCC1SC[C@H]2NC(=O)N[C@@H]12; NH(CH2CH2O)5CH2CO = O=C(COCCOCCOCCOCCOCCN[*:1])[*:2]; ξIle = CC[C@H](C)C(N)C(=O)O; Orn = NCCC[C@H](N)C(=O)O; AEA = NCCOCC(=O)O
# Tests used:
# [1] = tested on: CHO-K1 cells (wild type, GAG present); experiment: Flow cytometry binding of biotinylated compounds to CHO cells (Example 3); format: cell-based; details: 30 min at 4 °C, streptavidin-680RD fluorescence; FIG. 3A
# Method: (§1) Cell lines in exponential growth phase were cultured in complete culture medium with 10% FBS and grown in 75 cm^2 cell culture flasks. On the day of the experiment, cells were harvested and transferred in V-bottom culture plates, washed with PBS 1× supplemented with BSA 3% and then incubated with (51-hS)2KC-Mal-Biotin, (51-hS)2KS-(51-hS)KC-Mal-Biotin, [(51-hS)2KS]2KK(Biotin) and VAR2-Biotin for 30 min at 4° C. in PBS 1× supplemented with BSA 3% (and eventually PEG600 2%) at various dilutions (serial dilutions).
# (§2) After the incubation, cells were washed in PBS 1× supplemented with BSA 3%. For visualization, cells were incubated for 15 min at 4° C. with streptavidin coupled to 680RD fluorochrome. After the incubation, cells were washed in PBS 1× supplemented with 3% BSA and then incubated for at least 15 min at 4° C. with 4′,6-diamidino-2-phenylindole (DAPI) (Thermo Fisher Scientific) in order to exclude dead cells. Samples were directly applied to a flow cytometer. Data generated on the flow cytometer was analyzed using Flowjo™ 10.6.0.
# [2] = tested on: CHO-pgsA-745 cells (GAG-deficient mutant); experiment: as above; format: cell-based; details: 30 min at 4 °C, streptavidin-680RD fluorescence; FIG. 3B
# Method: as §1, §2
# [3] = background statement; cited from earlier work
# [4] = tested on: HCT 116 tumor xenograft; experiment: In vivo biodistribution by Optical Imaging in HCT 116 xenografted mice (Example 9); set-up: species or system athymic nude mice
# Method: For this purpose, HCT 116 cells were subcutaneously inoculated into the shoulder of athymic nude mice, and then the fluorescently-labelled compound was administered intravenously.
# Optical Imaging was used to evaluate fluorescent signals in mice 0.5, 1, 3, 8, 24, and 72 hours after the administration of [(51-hS)2KS]2KC-Mal-680RD at 3 different concentrations. Flow cytometry was also used to evaluate the tumor target expression in xenografted mice.
# HCT-116 cells were grown in McCoy's 5a medium supplemented with 10% foetal bovine serum, 100 IU/mL penicillin and 100 μg/mL streptomycin. The trypan-blue exclusion test was used to assess cell viability before cells inoculation. An aliquot (10 μL) of cell suspension was mixed with an equal amount of 0.4% trypan blue solution in PBS. 10 μL of the final solution was introduced in a counting chamber (hemocytometer). Viable cells appear round and bright, while damaged cells appear deep blue because of the incorporation of the trypan dye. Cell viability was expressed as % of viable cells over total cells). Cell cultures with viability of less than 70% were discarded.
# HCT 116 cells were collected and washed two times with PBS. One million of HCT 116 cells were suspended in 1:1 Matrigel™: McCoy's 5a (total volume 0.15 mL) and then injected subcutaneously into the shoulder of each female mouse of groups A, B, C.
# Animals were randomly assigned to the following experimental groups, Table 12.
# All animals were dosed once according to Table 12 when the tumors reached approximately 500-600 mm^3. The solutions were injected intravenously via the tail vein at the administration volume of 100 μL. After each injection the tail vein was flushed with 100 μL of sterile saline solution. All animals were individually inspected before the treatment and 0.5, 1, 3, 8, 24, and 72 hours after treatment.
# Clinical signs of the animals, such as posture, movement, breath, external body appearance, and any other relevant clinical sign were recorded. Mice of groups A, B, and C were anesthetized under 3-4% Sevoflurane gas anaesthesia (O2 95.0%) and imaged 0.5, 1, 3, 8, 24, and 72 hours post treatments. Mice were irradiated with filtered light of wavelength 675 nm and an image of emission light intensity was collected at 720 nm wavelength. Field of View, fstop, Binning and Exposition Time were determined during experimental setting. Regions of interest (ROIs) were selected by an operator over the acquired supine, dorsal, and side views. The signal intensity within the ROIs was determined automatically by the software. At the end of the experiment the mice were sacrificed and tumors were excised to measure ex vivo the fluorescent signal intensity.
# [5] = tested on: HCT-116 cells (colon carcinoma); experiment: Internalization in adherent cells, Trypan Blue quenching flow cytometry (Example 6); format: cell-based; details: 200 nM, 37 °C, FIG. 8
# Method: Adherent cell lines in exponential growth phase were cultured in complete culture medium with 10% FBS and grown in flat-bottom culture plates. On the day of the experiment, cells were washed with culture medium supplemented with 3% BSA (Sigma-Aldrich) and then incubated with peptides coupled with A488 fluorochrome for various timepoints (from 5 to 160 min) at a single concentration or at various dilutions (serial dilutions) at a determined timepoint at 37° C. in the corresponding culture medium supplemented with 3% BSA. After the incubation, cells were washed in PBS 1× and detached using trypsin. Following trypsinization, cells were washed in PBS 1× supplemented with 3% BSA and then incubated for at least 15 min at 4° C. with DAPI (Thermo Fisher Scientific) in order to exclude dead cells. Right before acquisition on a flow cytometer, samples were divided in two. The first series of samples was acquired directly on a flow cytometer whereas the second series was supplemented with Trypan Blue in order to observe the internal fluorescence only. The percentage of internalization was further determined.
# Fluorescence geometric mean of samples is standardised by subtracting fluorescence geometric mean of negative control (no compound) and the addition of 1.
# [6] = tested on: chondroitin-4-sulfate (C4S); experiment: ELISA binding to purified GAGs (Example 1); details: SAV-HRP/TMB absorbance 450 nm, binding at pH 6.4 for 1 hour at 37 °C, FIG. 1
# Method: (§3) ELISA plates were coated with various purified GAGs (Sigma, AMBIO) in PBS pH 7.4 for 2 hours at 37° C. Plates were blocked overnight at 4° C. with 200 μl of PBS pH 7.4, Tween 0.05%+BSA 3%+PEG400 2%, then washed twice with fresh buffer TSCM pH 6.4 ((Tris 20 mM, NaCl 150 mM, BSA 1%, Tween 0.05%, 2 mM MgCl2, 2 mM CaCl2). Binding of the different peptides at serial dilution was conducted in TSCMP (TSCM+2% (w/v) PEG 600) pH 6.4 for 1 hour at 37° C. (100 ul per well). Plates were washed three times with fresh TSCM pH 6.4 (200 ul per well) and SAV-HRP was added at a dilution of 1/8000 (100 ul per well) for 20 min at room temperature. Following 3 washes with PBS pH 7.4, 3,3′,5,5′-tetramethylbenzidine (TMB) substrate was added for 10 min (100 ul per well), protected from light. The reaction was stopped by addition of 100 μl of 1 M H2SO4 and the absorbance at 450 nm was measured.
# (§4) The GAGs tested in this example were: C4Str: chondroitin-4-sulfate(tracheal); C4Sns: chondroitin-4-sulfate (nasal); CSPG: chondroitin sulfate proteoglycan; C6S: chondroitin-6-sulfate; HA: hyaluronic acid; HEP: heparin; HS: heparan sulfate; DS: dermatan sulfate; PBS: PBS negative control.
# [7] = tested on: chondroitin-6-sulfate (C6S); experiment: ELISA binding to purified GAGs (Example 1); details: SAV-HRP/TMB absorbance 450 nm, binding at pH 6.4 for 1 hour at 37 °C, FIG. 1
# Method: as §3, §4
# [8] = tested on: CHO-K1 (WT) cells; experiment: Flow cytometry binding of 680RD-labelled PEG variants to CHO cells (Example 4); format: cell-based; details: 680RD fluorescence, 30 min at 4 °C, BSA 3% + PEG600 2%; FIGS. 4 and 5
# Method: Tumor cell lines in exponential growth phase were cultured in complete culture medium with 10% FBS and grown in 75 cm^2 cell culture flasks. On the day of the experiment, cells were harvested and transferred in V-bottom culture plates, washed with PBS 1× supplemented with BSA 3% and then incubated with compounds of the present invention coupled with 680RD fluorochrome for 30 min at 4° C. in PBS 1× supplemented with BSA 3% and PEG600 2% at various dilutions (serial dilutions).
# After the incubation, cells were washed in PBS 1× supplemented with BSA 3%.
# After the incubation, cells were washed in PBS 1× supplemented with 3% BSA and then incubated for at least 15 min at 4° C. with DAPI (Thermo Fisher Scientific) in order to exclude dead cells and samples are directly acquired on a flow cytometer. Data generated on the flow cytometer was analyzed using Flowjo™ 10.6.0.
molecule,measurement,setting,value
"CC[C@H](C)C(NC(=O)[C@H](CCCNC(=N)N)NC(=O)[C@H](NC(=O)[C@H](Cc1ccccc1)NC(=O)[C@H](Cc1ccc(O)cc1)NC(=O)[C@H](CCCNC(=N)N)NC(C)=O)C(C)C)C(=O)N[C@@H](CCCN)C(=O)N[C@@H](Cc1ccc(O)cc1)C(=O)N[C@@H](CCCNC(=N)N)C(=O)N[C@H](Cc1c[nH]cn1)C(=O)N[C@@H](CO)C(=O)N[C@@H](CCCCNC(=O)[C@H](CO)NC(=O)[C@@H](Cc1c[nH]cn1)NC(=O)[C@H](CCCNC(=N)N)NC(=O)[C@H](Cc1ccc(O)cc1)NC(=O)[C@H](CCCN)NC(=O)[C@@H](NC(=O)[C@H](CCCNC(=N)N)NC(=O)[C@H](NC(=O)[C@H](Cc1ccccc1)NC(=O)[C@H](Cc1ccc(O)cc1)NC(=O)[C@H](CCCNC(=N)N)NC(C)=O)C(C)C)[C@@H](C)CC)C(=O)N[C@@H](CO)C(=O)N[C@@H](CCCCNC(=O)[C@H](CO)NC(=O)[C@@H](Cc1c[nH]cn1)NC(=O)[C@H](CCCNC(=N)N)NC(=O)[C@H](Cc1ccc(O)cc1)NC(=O)[C@H](CCCN)NC(=O)[C@@H](NC(=O)[C@H](CCCNC(=N)N)NC(=O)[C@H](NC(=O)[C@H](Cc1ccccc1)NC(=O)[C@H](Cc1ccc(O)cc1)NC(=O)[C@H](CCCNC(=N)N)NC(C)=O)C(C)C)[C@@H](C)CC)C(=O)N[C@@H](CSC1CC(=O)N(CCCCCC(=O)NNC(=O)CCCCC2SC[C@H]3NC(=O)N[C@@H]23)C1=O)C(N)=O (some centres unmarked) [(51-hS)2KS-(51-hS)KC-Mal-Biotin] (I: Ac-RYF[dV]R[ξIle][Orn]YR[dH]SKSKC(X2)-NH2 / II: Ac-RYF[dV]RI[Orn]YR[dH]S / III: Ac-RYF[dV]RI[Orn]YR[dH]S; amide I:12-II:C, I:14-III:C)","binding on CHO-K1 cells, times better than (51-hS)2KC-Mal-Biotin",[1],17.9 ×
same,reduction of fluorescence on CHO-pgsA-745 as compared with fluorescence on CHO-K1 cells,[2],209.9 fold
CCc1c2c(nc3ccc(O)cc13)-c1cc3c(c(=O)n1C2)COC(=O)[C@]3(O)CC [SN-38],activity relative to irinotecan,[3],1000 times
same,potency relative to irinotecan in in vitro cytotoxicity assays,[3],2- to 2000 fold
"I: Ac-RYF[dV]R[ξIle][Orn]YR[dH]SKSKC(X1)-NH2 / II: Ac-RYF[dV]RI[Orn]YR[dH]SKS / III: Ac-RYF[dV]RI[Orn]YR[dH]S / IV: Ac-RYF[dV]RI[Orn]YR[dH]S (amide I:12-III:C, I:14-II:C, II:12-IV:C) [[(51-hS)2KS]2KC-Mal-680RD]",tumor signal of group B relative to other groups,"[4]; group B 20 nmol/mouse i.v. vs 4 nmol/mouse, dependent on dose and on blocking compound",higher tumor signal
same,tumor to muscle ratio of fluorescence signal,"[4]; groups A and B, all imaging times, FIGS. 12 and 13",almost two-fold
same,"fluorescence signal (Average Radiant Efficiency) in the abdominal region, mainly liver and intestine","[4]; groups A, B, C (4, 20, 4 + 16 unlabeled nmol/mouse i.v.), imaging 0.5-72 h, independent of dose or blocking compound",strong signal
same,fluorescence signal (Average Radiant Efficiency) in the tumor,"[4]; tumor of all groups, mainly groups A and B, i.v., imaging 0.5-72 h",presence of a signal
"I: Ac-RYF[dV]R[ξIle][Orn]YR[dH]SKSKC(X3)-NH2 / II: Ac-RYF[dV]RI[Orn]YR[dH]SKS / III: Ac-RYF[dV]RI[Orn]YR[dH]S / IV: Ac-RYF[dV]RI[Orn]YR[dH]S (amide I:12-III:C, I:14-II:C, II:12-IV:C) [[(51-hS)2KS]2KC-Mal-Alexa488]",extent of internalisation in HCT-116 cells,[5]; time course up to 160 min,85%
same,time after which 70% is internalised in HCT-116 cells,[5],40 min
"RYFvRIOYR (RYF[dV]RI[Orn]YR) [SEQ ID NO:37, Peptide moiety 51]",binding affinity to C4S,[6],binds specifically
same,binding affinity to C6S,[7],binds specifically
"[(51-hS)2K(PEG1)]2KC-Mal-680RD: Four copies of SEQ ID NO:37, structure comprising SEQ ID NO:7 (n is 1), L-Cys conjugated to IRDye 680RD Maleimide (chain 1 RYF[dV]RI[Orn]YR; chain 2 [dH]SK[AEA]KC(IRDye 680RD maleimide); also: four peptide copies on branched Lys scaffold, further copies not in the chains)",binding on CHO-K1 cells compared with [(51-hS)2KS]2KC-Mal-680RD,[8],increased binding
"[(51-hS)2K(PEG5)]2KC-Mal-680RD: Four copies of SEQ ID NO:37, structure comprising SEQ ID NO:7 (n is 5), L-Cys conjugated to IRDye 680RD Maleimide (chain 1 RYF[dV]RI[Orn]YR; chain 2 [dH]SK[NH(CH2CH2O)5CH2CO]KC(IRDye 680RD maleimide); also: four peptide copies on branched Lys scaffold, further copies not in the chains)",binding on CHO-K1 cells compared with [(51-hS)2KS]2KC-Mal-680RD,[8],increased binding
